Measured values from PubChem BioAssay (NCI).
Where “and” joins values, the source holds several entries; their conditions need not be identical. Identical values can stand only once.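 Exposure lasted 48 hours, with cells grown in 96-well plates and compounds tested at five concentrations. At the GI50, growth is halved. Definition used: TGI = concentration required for complete inhibition of growth.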

Tests used:
Test in all cases: DTP human tumour cell line panel, 48 h
UACC-257 melanoma = tested on: UACC-257 melanoma
IGROV1 ovarian = tested on: IGROV1 ovarian
SF-268 CNS = tested on: SF-268 CNS
RPMI-8226 leukemia = tested on: RPMI-8226 leukemia
UO-31 renal = tested on: UO-31 renal
NCI-H226 lung = tested on: NCI-H226 lung
SK-MEL-5 melanoma = tested on: SK-MEL-5 melanoma
NCI-H522 lung = tested on: NCI-H522 lung
KM12 colon = tested on: KM12 colon
COLO 205 colon = tested on: COLO 205 colon

Structure (SMILES) | GI50 (UACC-257 melanoma) | TGI (UACC-257 melanoma) | GI50 (IGROV1 ovarian) [µM] | TGI (IGROV1 ovarian) [µM] | GI50 (SF-268 CNS) | TGI (SF-268 CNS) | GI50 (RPMI-8226 leukemia) [µM] | TGI (RPMI-8226 leukemia) [µM] | GI50 (UO-31 renal) | TGI (UO-31 renal) | GI50 (NCI-H226 lung) [µM] | TGI (NCI-H226 lung) [µM] | GI50 (SK-MEL-5 melanoma) [µM] | TGI (SK-MEL-5 melanoma) [µM] | GI50 (NCI-H522 lung) [µM] | TGI (NCI-H522 lung) [µM] | GI50 (KM12 colon) | TGI (KM12 colon) [µM] | GI50 (COLO 205 colon) [µM] | TGI (COLO 205 colon) [µM]
CCCCC(SC(=S)N(CC)CC)C(=O)Nc1nc(CC(=O)OCC)cs1 (stereo not given) | 35.6 µM | > 100 µM | 37.4 | > 100 | 54.3 µM | > 100 µM | 22 | 85.2 | 47.6 µM | > 100 µM | 58 | > 100 | 13.5 | 30.9 | 13.3 | > 100 | 31.6 µM | > 100 |  | 
NCC(=O)Nc1ccc(-n2nc(C(F)(F)F)cc2-c2ccc3c(ccc4ccccc43)c2)cc1 | 1.66 µM | 3.31 µM |  |  | 1.13 µM | 2.75 µM | 1.29 | 4.08 | 1.32 µM | 2.61 µM | 2.15 | 6.35 | 1.25 | 2.56 | 1.32 | 2.71 | 0.922 µM | 2.18 | 1.36 | 2.89
COC(=O)C1=C2C3=C(C(=O)c4ccccc4C3=O)N(Cc3ccccc3)C2(OC(C)=O)C=CC1=O (stereo not given) | 29.6 µM | > 100 µM | 16.5 | > 100 | 2.86 µM | 23.6 µM | 1.09 | 8.83 | 18.2 µM | > 100 µM | 11.6 | 32.6 | 10.2 | 24.9 | 5.56 | > 100 |  |  | 26.8 | > 100
Cn1c(O)c(C=N)c(=O)n(C)c1=O |  | > 100 µM |  |  |  | > 100 µM |  | > 100 |  | > 100 µM |  | > 100 |  | > 100 |  | > 100 |  | > 100 |  | 
CC1=C(C)C(=O)c2c(cc3c4ccccc4ccn23)C1=O |  | > 100 µM |  | > 100 |  |  |  | > 100 |  | > 100 µM |  | > 100 |  | > 100 |  | > 100 |  | > 100 |  | > 100
OCC1OC(n2ccc3cnccc32)CC1O (stereo not given) |  | > 100 µM |  | > 100 |  |  |  | > 100 |  | > 100 µM |  | > 100 |  | > 100 |  | > 100 |  | > 100 |  | > 100
NC(=O)c1cccc(N)c1 |  |  | > 100 | > 100 | > 100 µM | > 100 µM | > 100 | > 100 | > 100 µM | > 100 µM | > 100 | > 100 | > 100 | > 100 | > 100 | > 100 | > 100 µM | > 100 | > 100 | > 100
O=C1C(CN(Cc2ccccc2)Cc2ccccc2)CCCC1CN(Cc1ccccc1)Cc1ccccc1 (stereo not given) | 27.9 µM and > 100 µM | 49.1 µM and > 100 µM |  | > 100 | 33.3 µM and > 100 µM | 53 µM and > 100 µM |  | > 100 | 16.9 µM and 47.6 µM | 27.3 µM and > 100 µM |  | > 100 |  | > 100 |  |  | 40.2 µM and > 100 µM | > 100 |  | 
